# Results reported in patent publication US12091426B2, “Bifunctional degraders of hematopoietic progenitor kinase and therapeutic uses thereof” (Nurix Therapeutics, Inc., priority 2021, dated 2024).
# Target: T1, HPK1 (Homo sapiens, UniProt Q92918)
# T1 construct: A HiBiT tag was introduced by CRISPR on the N terminus of HPK1 in Jurkat cells; host or cells: Jurkat cells (ATCC TIB-152), monoclonal line with CRISPR knock-in of HiBiT at the endogenous HPK1 locus
# Assay: HPK1 Cellular HiBit Degradation Assay
# Assay type: cell-based
# Conditions: HiBiT HPK1 Jurkat cells, 24 hrs; for DC50: concentration at which 50% of HPK1 was remaining, read-out: DC50 Category; for Dmax: Jurkat, maximum degradation vs DMSO vehicle control, read-out: Dmax Category
# How it was run: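 Jurkat cells with CRISPR N-terminal HiBiT-tagged endogenous HPK1 treated 24 h at 37 °C with 11-point, 3.16-fold dilutions (10 uM to 0.1 nM final). HiBiT lytic luminescence gives % HPK1 remaining versus DMSO, with parental cells as background. Four-parameter fit yields DC50; Dmax = 100 minus lowest % remaining.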
# T1 sequence (Q92918 whole entry): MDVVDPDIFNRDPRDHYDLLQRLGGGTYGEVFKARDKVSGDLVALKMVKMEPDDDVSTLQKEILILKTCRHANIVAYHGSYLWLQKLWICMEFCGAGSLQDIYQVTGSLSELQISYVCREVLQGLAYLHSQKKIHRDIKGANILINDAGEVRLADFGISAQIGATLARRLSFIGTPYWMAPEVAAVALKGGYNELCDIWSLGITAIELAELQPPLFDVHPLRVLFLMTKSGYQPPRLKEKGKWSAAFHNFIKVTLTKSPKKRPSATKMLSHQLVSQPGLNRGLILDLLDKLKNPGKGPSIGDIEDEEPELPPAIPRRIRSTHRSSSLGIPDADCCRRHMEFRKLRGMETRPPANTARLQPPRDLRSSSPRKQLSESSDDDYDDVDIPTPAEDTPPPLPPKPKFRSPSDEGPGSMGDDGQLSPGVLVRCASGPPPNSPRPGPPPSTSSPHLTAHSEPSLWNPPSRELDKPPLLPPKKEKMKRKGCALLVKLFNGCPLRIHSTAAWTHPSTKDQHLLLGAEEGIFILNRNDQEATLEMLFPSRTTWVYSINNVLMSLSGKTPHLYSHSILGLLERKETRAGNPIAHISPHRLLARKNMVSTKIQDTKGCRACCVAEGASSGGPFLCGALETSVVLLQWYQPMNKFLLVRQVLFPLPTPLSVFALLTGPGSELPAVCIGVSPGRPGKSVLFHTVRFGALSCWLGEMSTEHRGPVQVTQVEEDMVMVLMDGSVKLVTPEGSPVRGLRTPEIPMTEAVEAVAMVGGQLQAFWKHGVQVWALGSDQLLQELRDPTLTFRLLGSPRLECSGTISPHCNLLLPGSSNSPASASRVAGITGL
compound,measurement,value
"CC(C)n1cnc2cc(-c3ccc4c(c3)N([C@H]3C[C@@H](N5CCCCC5)C3)C(=O)C43CCN(C(=O)C4[C@@H]5C[C@H]4CN(C(=O)CC4CCN(c6ccc(C7CCC(=O)NC7=O)cn6)CC4)C5)CC3)nc(NC3CC3)c21 (stereo partly drawn) [Example 240, 3-(6-(4-(2-((1R,5S,6S)-6-(6-(4-(cyclopropylamino)-3-isopropyl-3H-imidazo[4,5-c]pyridin-6-yl)-2-oxo-1-((1S,3S)-3-(piperidin-1-yl)cyclobutyl)spiro[indoline-3,4′-piperidine]-1′-carbonyl)-3-azabicyclo[3.1.1]heptan-3-yl)-2-oxoethyl)piperidin-1-yl)pyridin-3-yl)piperidine-2,6-dione]",DC50,< 100 nM
same,Dmax,> 85%
"CC(C)n1cnc2cc(-c3ccc4c(c3)N([C@H]3C[C@@H](N5CCCCC5)C3)C(=O)C43CCN(C(=O)C4C5CC4CN(C(=O)[C@H]4CC[C@H](Oc6ccc(C7CCC(=O)NC7=O)cc6)CC4)C5)CC3)nc(NC3CC3)c21 (stereo partly drawn) [Example 241, 3-(4-{[(1R,4R)-4-[6-({6-[4-(cyclopropylamino)-3-(propan-2-yl)-3H-imidazo[4,5-c]pyridin-6-yl]-2-oxo-1-[(1S,3S)-3-(piperidin-1-yl)cyclobutyl]-1,2-dihydrospiro[indole-3,4′-piperidin]-1′-yl}carbonyl)-3-azabicyclo[3.1.1]heptane-3-carbonyl]cyclohexyl]oxy}phenyl)piperidine-2,6-dione]",DC50,< 100 nM
same,Dmax,> 85%
